From ChEMBL document CHEMBL3259715, “Shuttle-cargo fusion molecules of transport peptides and the hD2/3 receptor antagonist fallypride: a feasible approach to preserve ligand-receptor binding?” (J Med Chem, 2014) come the findings set out here.

Peptide text beside a SMILES is read from it. * marks the point of attachment. X1 = C=CCN1CCC[C@H]1CNC(=O)c1cc(CCCSC2CC(=O)N(CCCCCC(=O)*)C2=O)cc(OC)c1OC

For this assay, the target named is D(2) dopamine receptor (Homo sapiens, UniProt P14416). Put plainly: Displacement of [3H]spiperone from human D2 receptor transfected in HEK cells. The format is cell-based, HEK293. For orientation: Loss of bound radioactivity is the signal in a displacement assay; it reports binding, not function.
Chain of D(2) dopamine receptor (P14416 whole entry): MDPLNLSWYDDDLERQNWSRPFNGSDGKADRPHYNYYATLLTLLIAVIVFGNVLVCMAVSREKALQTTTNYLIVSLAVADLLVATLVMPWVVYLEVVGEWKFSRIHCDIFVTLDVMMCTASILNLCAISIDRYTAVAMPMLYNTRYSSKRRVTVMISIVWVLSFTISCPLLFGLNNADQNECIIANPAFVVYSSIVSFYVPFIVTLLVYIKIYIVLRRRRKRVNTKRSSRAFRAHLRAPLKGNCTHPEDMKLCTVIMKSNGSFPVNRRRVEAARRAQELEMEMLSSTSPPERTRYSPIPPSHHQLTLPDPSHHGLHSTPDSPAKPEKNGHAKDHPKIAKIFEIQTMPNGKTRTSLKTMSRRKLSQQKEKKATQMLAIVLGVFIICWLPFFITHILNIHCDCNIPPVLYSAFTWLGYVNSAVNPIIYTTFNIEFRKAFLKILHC

Regarding `C=CCN1CCC[C@H]1CNC(=O)c1cc(CCCSC2CC(=O)N(CCCCCC(=O)NCCOCCOCC(=O)N[C@@H](Cc3cnc[nH]3)C(=O)N[C@@H](C)C(=O)N[C@H](C(=O)N[C@@H](Cc3ccc(O)cc3)C(=O)N3CCC[C@H]3C(=O)N[C@@H](CCCNC(=N)N)C(=O)N[C@@H](Cc3cnc[nH]3)C(=O)O)[C@@H](C)CC)C2=O)cc(OC)c1OC` (some centres undefined), the inhibitory constant (Ki) (usually a dissociation constant, usually derived from enzyme kinetics or from competition with a known ligand) came out at 30.3 nM.

`C=CCN1CCC[C@H]1CNC(=O)c1cc(CCCSC2CC(=O)N(CCCCCC(=O)NCCOCCOCCOCCOCCOCCOCCC(=O)N[C@@H](Cc3cnc[nH]3)C(=O)N[C@@H](C)C(=O)N[C@H](C(=O)N[C@@H](Cc3ccc(O)cc3)C(=O)N3CCC[C@H]3C(=O)N[C@@H](CCCNC(=N)N)C(=O)N[C@@H](Cc3cnc[nH]3)C(=O)O)[C@@H](C)CC)C2=O)cc(OC)c1OC` (some centres undefined) had a Ki of 27.4 nM.

For the compound `C=CCN1CCC[C@H]1CNC(=O)c1cc(CCCF)ccc1OC`, the Ki came to 0.63 nM.

With `C=CCN1CCC[C@H]1CNC(=O)c1cc(CCCSC2CC(=O)N(CCCCCC(=O)N[C@H](C(=O)N[C@@H](Cc3cnc[nH]3)C(=O)N[C@@H](CCCNC(=N)N)C(=O)N3CCC[C@H]3C(=O)N3CCC[C@H]3C(=O)N[C@@H](CCSC)C(=O)N[C@@H](Cc3c[nH]c4ccccc34)C(=O)N[C@@H](CO)C(=O)N3CCC[C@H]3C(=O)N[C@H](C(=O)N[C@@H](Cc3c[nH]c4ccccc34)C(=O)N3CCC[C@H]3C(=O)O)C(C)C)[C@@H](C)O)C2=O)cc(OC)c1OC` (some centres undefined) (X1-THRPPMWSPVWP-OH), the Ki came to 27.3 nM.

As for `C=CCN1CCC[C@H]1CNC(=O)c1cc(CCCSC2CC(=O)N(CCCCCC(=O)N[C@H](C(=O)N[C@@H](CCC(N)=O)C(=O)N[C@@H](CCCNC(=N)N)C(=O)N[C@@H](CCCCN)C(=O)N[C@@H](CCCNC(=N)N)C(=O)N[C@@H](CCC(N)=O)C(=O)N[C@@H](CCCCN)C(=O)N[C@@H](CC(C)C)C(=O)N[C@@H](CCSC)C(=O)N3CCC[C@H]3C(=O)O)C(C)C)C2=O)cc(OC)c1OC` (some centres undefined) (X1-VQRKRQKLMP-OH), the affinity corresponds to a Ki of 13 nM. This Ki lies about 2.1-fold lower than the previous one.

In turn, `C=CCN1CCC[C@H]1CNC(=O)c1cc(CCCSC2CC(=O)N(CCCCCC(=O)N[C@H](C(=O)N[C@@H](Cc3ccccc3)C(=O)N[C@@H](Cc3ccccc3)C(=O)N[C@@H](Cc3ccc(O)cc3)C(=O)NCC(=O)NCC(=O)N[C@@H](CO)C(=O)N[C@@H](CCCNC(=N)N)C(=O)NCC(=O)N[C@@H](CCCCNC(=O)CN3CCN(CC(=O)O)CCN(CC(=O)O)CCN(CC(=O)O)CC3)C(=O)N[C@@H](CCCNC(=N)N)C(=O)N[C@@H](CC(N)=O)C(=O)N[C@@H](CC(N)=O)C(=O)N[C@@H](Cc3ccccc3)C(=O)N[C@@H](CCCC[n+]3c(C)cc(/C=C/C=C/c4ccc(N(C)C)cc4)cc3C)C(=O)N[C@H](C(=O)N[C@@H](CCC(=O)O)C(=O)N[C@@H](CCC(=O)O)C(=O)N[C@@H](Cc3ccc(O)cc3)C(=O)O)[C@@H](C)O)[C@@H](C)O)C2=O)cc(OC)c1OC` (some centres undefined) came in with an inhibitory constant (Ki) of 64.2 nM.

Take `C=CCN1CCC[C@H]1CNC(=O)c1cc(CCCSC2CC(=O)N(CCCCCC(=O)N[C@@H](CCCNC(=N)N)C(=O)N[C@@H](CCCCN)C(=O)N[C@@H](CCCCN)C(=O)N[C@@H](CCCNC(=N)N)C(=O)N[C@@H](CCCNC(=N)N)C(=O)N[C@@H](CCC(N)=O)C(=O)N[C@@H](CCCNC(=N)N)C(=O)N[C@@H](CCCNC(=N)N)C(=O)N[C@@H](CCCNC(=N)N)C(=O)O)C2=O)cc(OC)c1OC` (some centres undefined): the inhibitory constant (Ki) was determined as 9.69 nM.

`C=CCN1CCC[C@H]1CNC(=O)c1cc(CCCSC2CC(=O)N(CCCCCC(=O)NCCOCCOCCOCCOCCC(N)=O)C2=O)cc(OC)c1OC` (some centres undefined): the affinity, expressed as Ki, was 7.31 nM.

In turn, `C=CCN1CCC[C@H]1CNC(=O)c1cc(CCCSC2CC(=O)N(CCCCCC(=O)NCCCC(=O)N[C@@H](Cc3cnc[nH]3)C(=O)N[C@@H](C)C(=O)N[C@H](C(=O)N[C@@H](Cc3ccc(O)cc3)C(=O)N3CCC[C@H]3C(=O)N[C@@H](CCCNC(=N)N)C(=O)N[C@@H](Cc3cnc[nH]3)C(=O)O)[C@@H](C)CC)C2=O)cc(OC)c1OC` (some centres undefined) had an inhibitory constant (Ki) of 28.4 nM.

`C=CCN1CCC[C@H]1CNC(=O)c1cc(CCCSC2CC(=O)N(CCCCCC(=O)N[C@@H](Cc3cnc[nH]3)C(=O)N[C@@H](C)C(=O)N[C@H](C(=O)N[C@@H](Cc3ccc(O)cc3)C(=O)N3CCC[C@H]3C(=O)N[C@@H](CCCNC(=N)N)C(=O)N[C@@H](Cc3cnc[nH]3)C(=O)O)[C@@H](C)CC)C2=O)cc(OC)c1OC` (some centres undefined) displayed an inhibitory constant (Ki) of 10.3 nM.

`C=CCN1CCC[C@H]1CNC(=O)c1cc(CCCSC2CC(=O)N(CCCCCC(=O)NCCOCCOCCOCCOCCOCCOCCOCCOCCC(=O)N[C@@H](Cc3cnc[nH]3)C(=O)N[C@@H](C)C(=O)N[C@H](C(=O)N[C@@H](Cc3ccc(O)cc3)C(=O)N3CCC[C@H]3C(=O)N[C@@H](CCCNC(=N)N)C(=O)N[C@@H](Cc3cnc[nH]3)C(=O)O)[C@@H](C)CC)C2=O)cc(OC)c1OC` (some centres undefined): the affinity, expressed as Ki, was 53.9 nM.

Compound `C=CCN1CCC[C@H]1CNC(=O)c1cc(CCCSC2CC(=O)N(CCCCCC(=O)NCC(=O)N[C@@H](CCCNC(=N)N)C(=O)N[C@@H](CCCCN)C(=O)N[C@@H](CCCCN)C(=O)N[C@@H](CCCNC(=N)N)C(=O)N[C@@H](CCCNC(=N)N)C(=O)N[C@@H](CCC(N)=O)C(=O)N[C@@H](CCCNC(=N)N)C(=O)N[C@@H](CCCNC(=N)N)C(=O)N[C@@H](CCCNC(=N)N)C(=O)N3CCC[C@H]3C(=O)N3CCC[C@H]3C(=O)N[C@@H](CCC(N)=O)C(=O)O)C2=O)cc(OC)c1OC` (some centres undefined) registered an inhibition constant (Ki) of 21.5 nM.

In the case of `C=CCN1CCC[C@H]1CNC(=O)c1cc(CCCSC2CC(=O)N(CCCCCC(=O)NCCOCCOCCOCCOCCOCCOCCC(=O)N[C@H](C(=O)N[C@@H](Cc3ccccc3)C(=O)N[C@@H](Cc3ccccc3)C(=O)N[C@@H](Cc3ccc(O)cc3)C(=O)NCC(=O)NCC(=O)N[C@@H](CO)C(=O)N[C@@H](CCCNC(=N)N)C(=O)NCC(=O)N[C@@H](CCCCNC(=O)CN3CCN(CC(=O)O)CCN(CC(=O)O)CCN(CC(=O)O)CC3)C(=O)N[C@@H](CCCNC(=N)N)C(=O)N[C@@H](CC(N)=O)C(=O)N[C@@H](CC(N)=O)C(=O)N[C@@H](Cc3ccccc3)C(=O)N[C@@H](CCCCN)C(=O)N[C@H](C(=O)N[C@@H](CCC(=O)O)C(=O)N[C@@H](CCC(=O)O)C(=O)N[C@@H](Cc3ccc(O)cc3)C(=O)O)[C@@H](C)O)[C@@H](C)O)C2=O)cc(OC)c1OC` (some centres undefined), the Ki was 35.8 nM.

`C=CCN1CCC[C@H]1CNC(=O)c1cc(CCCSC2CC(=O)N(CCCCCC(=O)NCC(=O)N[C@@H](Cc3c[nH]c4ccccc34)C(=O)N[C@H](C(=O)N[C@@H](CC(C)C)C(=O)N[C@@H](CC(=O)O)C(=O)N[C@@H](CO)C(=O)N[C@@H](C)C(=O)NCC(=O)N[C@@H](Cc3ccc(O)cc3)C(=O)N[C@@H](CC(C)C)C(=O)N[C@@H](CC(C)C)C(=O)NCC(=O)N[C@@H](CCCCN)C(=O)N[C@H](C(=O)N[C@@H](CC(=O)O)C(=O)N[C@@H](CC(C)C)C(=O)N[C@@H](CCCCN)C(=O)N[C@@H](C)C(=O)N[C@@H](CC(C)C)C(=O)N[C@@H](C)C(=O)N[C@@H](C)C(=O)N[C@@H](CC(C)C)C(=O)N[C@@H](C)C(=O)N[C@@H](CCCCN)C(=O)N[C@@H](CCCCN)C(=O)N[C@H](C(=O)N[C@@H](CC(C)C)C(=O)O)[C@@H](C)CC)[C@@H](C)CC)[C@@H](C)O)C2=O)cc(OC)c1OC` (some centres undefined) (X1-GWTLDSAGYLLGKIDLKALAALAKKIL-OH) registered a Ki of 12.3 nM.
